Experimental data from patent publication US6603044B1, “Phthalamide derivatives, or salt thereof agrohorticultural insecticide, and method for using the same” (Nihon Nohyaku Co., Ltd., priority 1998, dated 2003).

Each compound was assayed on Diamond Back Moth (Plutella xylostella) (assay: Insecticidal effect on diamond back moth (Test Example 1)). Conditions: 50 ppm; Chinese cabbage seedling with deposited eggs immersed about 30 seconds; 25° C.; six days after the immersion.
Type: in vivo
From the text: Insecticidal Effect on Diamond Back Moth (Plutella xylostella)
Adult diamondback moths were released and allowed to oviposit on a Chinese cabbage seedling. Two days after the release, the seedling having the eggs deposited thereon was immersed for about 30 seconds in a liquid chemical prepared by diluting a preparation containing each compound listed in Table 1, 2 or 3 as an active ingredient to adjust the concentration to 50 ppm. After air-dryness, it was allowed to stand in a room thermostatted at 25° C. Six days after the immersion, the hatched insects were counted. The mortality was calculated according to the following equation and the insecticidal effect was judged according to the criterion shown below. The test was carried out with triplicate groups of 10 insects.
`CSCCN(C)C(=O)c1c(F)cccc1C(=O)Nc1ccc(C(F)(C(F)(F)F)C(F)(F)F)cc1C` [2-7] was tested, and the “Test Example 1 insecticidal effect (mortality)” value was “A (100)”. With `Cc1cc(C(F)(C(F)(F)F)C(F)(F)F)ccc1NC(=O)c1cccc(F)c1C(=O)N(C)CC[S+](C)[O-]` (stereo not drawn) [2-9] the “Test Example 1 insecticidal effect (mortality)” value was “A (100)”. `CCN(CC[S+](C)[O-])C(=O)c1c(F)cccc1C(=O)Nc1ccc(C(F)(C(F)(F)F)C(F)(F)F)cc1C` (stereo not drawn) [2-11] was tested, and the “Test Example 1 insecticidal effect (mortality)” value was “A (100)”. For `CCN(CSC)C(=O)c1c(Cl)cccc1C(=O)Nc1ccc(OC(F)(F)F)cc1C` [2-16], the “Test Example 1 insecticidal effect (mortality)” value was “A (100)”. For `Cc1cc(C(F)(C(F)(F)F)C(F)(F)F)ccc1NC(=O)c1cccc(I)c1C(=O)N1CCSC1` [3-2], the “Test Example 1 insecticidal effect (mortality)” value was “A (100)”. In the case of `CSCC(C)NC(=O)c1cccc(S(C)(=O)=O)c1C(=O)Nc1ccc(C(F)(C(F)(F)F)C(F)(F)F)cc1C` (stereo not drawn) [Compound No. 192, N^1-(4-Heptafluoroisopropyl-2-methylphenyl)-N^2-(1-methyl-2-methylthioethyl)-6-methylsulfonylphthalamide], the “Test Example 1 insecticidal effect (mortality)” value is reported as “A (100)”. For `CSCC(C)NC(=O)c1c(I)cccc1C(=O)Nc1ccc(OC(F)F)cc1C` (stereo not drawn) [compound 4], the “Test Example 1 insecticidal effect (mortality)” value was “A (100)”. With `CSCC(C)NC(=O)c1c(I)cccc1C(=O)Nc1ccc(Cl)cc1C` (stereo not drawn) [compound 9] the “Test Example 1 insecticidal effect (mortality)” value was “A (100)”. With `CSCC(C)NC(=O)c1c(F)cccc1C(=O)Nc1ccc(OC(F)(F)F)cc1C` (stereo not drawn) [compound 12] the “Test Example 1 insecticidal effect (mortality)” value was “A (100)”. `CSCC(C)NC(=O)c1c(F)cccc1C(=O)Nc1ccc(OC(F)F)cc1C` (stereo not drawn) [compound 13] was tested, and the “Test Example 1 insecticidal effect (mortality)” value was “A (100)”. In the case of `CSCC(C)NC(=O)c1ccccc1C(=O)Nc1ccc(C(F)(F)C(F)(F)F)cc1C` (stereo not drawn) [compound 14], the “Test Example 1 insecticidal effect (mortality)” value is reported as “A (100)”. For `CSCC(C)NC(=O)c1ccccc1C(=O)Nc1ccc(OC(F)(F)F)cc1C` (stereo not drawn) [compound 15], the “Test Example 1 insecticidal effect (mortality)” value was “A (100)”. With `CCSCC(C)NC(=O)c1c(F)cccc1C(=O)Nc1ccc(OC(F)(F)F)cc1C` (stereo not drawn) [compound 27] the “Test Example 1 insecticidal effect (mortality)” value was “A (100)”. `CSCC(CSC)NC(=O)c1c(I)cccc1C(=O)Nc1ccc(C(F)(F)C(F)(F)F)cc1C` [compound 36] was tested, and the “Test Example 1 insecticidal effect (mortality)” value was “A (100)”. For `CSCC(C)NC(=O)c1ccc(Cl)c(Cl)c1C(=O)Nc1ccc(C(F)(C(F)(F)F)C(F)(F)F)cc1C` (stereo not drawn) [compound 42], the “Test Example 1 insecticidal effect (mortality)” value was “A (100)”. With `CSCC(C)NC(=O)c1c(I)cccc1C(=O)Nc1cc2c(cc1Cl)OC(F)(F)C(F)O2` (stereo not drawn) [compound 47] the “Test Example 1 insecticidal effect (mortality)” value was “A (100)”. With `CSCCNC(=O)c1cccc(I)c1C(=O)Nc1ccc(OC(F)(F)F)cc1C` [compound 51] the “Test Example 1 insecticidal effect (mortality)” value was “A (100)”. `CSCCNC(=O)c1c(I)cccc1C(=O)Nc1ccc(OC(F)(F)F)cc1C` [compound 52] was tested, and the “Test Example 1 insecticidal effect (mortality)” value was “A (100)”. `CSCCCNC(=O)c1c(I)cccc1C(=O)Nc1ccc(OC(F)(F)F)cc1C` [compound 55] was tested, and the “Test Example 1 insecticidal effect (mortality)” value was “A (100)”. `Cc1cc(OC(F)(F)F)ccc1NC(=O)c1cccc(I)c1C(=O)NCCSC(C)C` [compound 58] was tested, and the “Test Example 1 insecticidal effect (mortality)” value was “A (100)”. In the case of `CCSCCNC(=O)c1c(I)cccc1C(=O)Nc1ccc(OC(F)(F)F)cc1C` [compound 71], the “Test Example 1 insecticidal effect (mortality)” value is reported as “A (100)”. In the case of `CCCCCCSCC(C)NC(=O)c1c(I)cccc1C(=O)Nc1ccc(OC(F)(F)F)cc1C` (stereo not drawn) [compound 77], the “Test Example 1 insecticidal effect (mortality)” value is reported as “A (100)”. With `CCCCCCSCC(C)NC(=O)c1c(I)cccc1C(=O)Nc1ccc(C(F)(C(F)(F)F)C(F)(F)F)cc1C` (stereo not drawn) [compound 78] the “Test Example 1 insecticidal effect (mortality)” value was “A (100)”. For `CC(CS(C)(=O)=O)NC(=O)c1c(I)cccc1C(=O)Nc1cc2c(cc1Cl)OC(F)(F)C(F)O2` (stereo not drawn) [compound 103], the “Test Example 1 insecticidal effect (mortality)” value was “A (100)”. With `CSCC(C)NC(=O)c1c(C(=O)Nc2ccc(OC(F)(F)F)cc2C)cccc1[N+](=O)[O-]` (stereo not drawn) [compound 104] the “Test Example 1 insecticidal effect (mortality)” value was “A (100)”. In the case of `CSCC(C)NC(=O)c1cc(I)ccc1C(=O)Nc1ccc(OC(F)(F)F)cc1C` (stereo not drawn) [compound 107], the “Test Example 1 insecticidal effect (mortality)” value is reported as “A (100)”. With `CSCC(C)NC(=O)c1ccc(I)cc1C(=O)Nc1ccc(OC(F)(F)F)cc1C` (stereo not drawn) [compound 110] the “Test Example 1 insecticidal effect (mortality)” value was “A (100)”. `Cc1cc(C(F)(F)C(F)(F)F)ccc1NC(=O)c1c(Cl)cccc1C(=O)NC(C)CS(C)(=O)=O` (stereo not drawn) [compound 116] was tested, and the “Test Example 1 insecticidal effect (mortality)” value was “A (100)”. `CCC(CSC)NC(=O)c1c(I)cccc1C(=O)Nc1ccc(C(F)(C(F)(F)F)C(F)(F)F)cc1C` (stereo not drawn) [compound 120] was tested, and the “Test Example 1 insecticidal effect (mortality)” value was “A (100)”. `CSCC(C)NC(=O)c1c(SC(F)(F)F)cccc1C(=O)Nc1ccc(C(F)(F)C(F)(F)F)cc1C` (stereo not drawn) [compound 129] was tested, and the “Test Example 1 insecticidal effect (mortality)” value was “A (100)”. For `CSCC(C)NC(=O)c1c(C(=O)Nc2ccc(C(F)(C(F)(F)F)C(F)(F)F)cc2C)cccc1[S+]([O-])C(F)(F)F` (stereo not drawn) [compound 132], the “Test Example 1 insecticidal effect (mortality)” value was “A (100)”. In the case of `CSCC(C)NC(=O)c1c(C(=O)Nc2ccc(OC(F)(F)F)cc2C)ccc(F)c1Cl` (stereo not drawn) [compound 147], the “Test Example 1 insecticidal effect (mortality)” value is reported as “A (100)”. In the case of `CSCCCC(C)NC(=O)c1cccc(Cl)c1C(=O)Nc1ccc(C(F)(F)C(F)(F)F)cc1C` (stereo not drawn) [compound 151], the “Test Example 1 insecticidal effect (mortality)” value is reported as “A (100)”. For `Cc1cc(C(F)(F)C(F)(F)F)ccc1NC(=O)c1cccc(Cl)c1C(=O)NC(C)CCC[S+](C)[O-]` (stereo not drawn) [compound 152], the “Test Example 1 insecticidal effect (mortality)” value was “A (100)”. With `CSCC(C)NC(=O)c1c(C(=O)Nc2ccc(C(F)(F)C(F)(F)F)cc2C)ccc2c1OCO2` (stereo not drawn) [compound 158] the “Test Example 1 insecticidal effect (mortality)” value was “A (100)”. For `Cc1cc(C(F)(C(F)(F)F)C(F)(F)F)ccc1NC(=O)c1cccc(Cl)c1C(=O)NC(C)(C)C[S+](C)[O-]` (stereo not drawn) [compound 172], the “Test Example 1 insecticidal effect (mortality)” value was “A (100)”. For `CC[S+]([O-])CCCCC(C)NC(=O)c1c(I)cccc1C(=O)Nc1ccc(C(F)(F)C(F)(F)F)cc1C` (stereo not drawn) [compound 177], the “Test Example 1 insecticidal effect (mortality)” value was “A (100)”. For `Cc1cc(OC(F)(F)F)ccc1NC(=O)c1ccc(Cl)c(Cl)c1C(=O)NC(C)CS(C)(=O)=O` (stereo not drawn) [compound 194], the “Test Example 1 insecticidal effect (mortality)” value was “A (100)”. For `CCSC(C)CNC(=O)c1cccc(I)c1C(=O)Nc1ccc(C(F)(C(F)(F)F)C(F)(F)F)cc1C` (stereo not drawn) [compound 209], the “Test Example 1 insecticidal effect (mortality)” value was “A (100)”. For `CC[S+]([O-])CCCC(C)NC(=O)c1c(Br)cccc1C(=O)Nc1ccc(C(F)(C(F)(F)F)C(F)(F)F)cc1C` (stereo not drawn) [compound 214], the “Test Example 1 insecticidal effect (mortality)” value was “A (100)”. For `COc1ccc(C(=O)Nc2ccc(C(F)(C(F)(F)F)C(F)(F)F)cc2C)c(C(=O)NC(C)CSC)c1Cl` (stereo not drawn) [compound 222], the “Test Example 1 insecticidal effect (mortality)” value was “A (100)”. In the case of `Cc1cc(OC(F)(F)F)ccc1NC(=O)c1cccc(I)c1C(=O)NC1CCSC1` (stereo not drawn) [compound 258], the “Test Example 1 insecticidal effect (mortality)” value is reported as “A (100)”. `CCS(=O)(=O)CCC(C)NC(=O)c1c(Cl)cccc1C(=O)Nc1ccc(C(F)(C(F)(F)F)C(F)(F)F)cc1C` (stereo not drawn) [compound 275] was tested, and the “Test Example 1 insecticidal effect (mortality)” value was “A (100)”. For `Cc1cc(C(F)(F)F)ccc1NC(=O)c1cccc(Br)c1C(=O)NC(C)CS(C)(=O)=O` (stereo not drawn) [compound 277], the “Test Example 1 insecticidal effect (mortality)” value was “A (100)”. With `Cc1cc(C(F)(C(F)(F)F)C(F)(F)F)ccc1NC(=O)c1ccc2c(c1C(=O)NC(C)CS(C)(=O)=O)OC(F)(F)O2` (stereo not drawn) [compound 289] the “Test Example 1 insecticidal effect (mortality)” value was “A (100)”.
